Data from patent US7531509B2, “Papillosin antimicrobial peptide, a gene coding said peptide, a vector, a transformed organism and a compound containing said organism” (Centre National de la Recherche Scientifique—CNRS, priority 2003, dated 2009).
No end group written: not given here.

Columns and labels:
[1] = tested on: gram-positive and gram-negative bacteria; assay: Spectrum of antibacterial activity (summary); assay type: cell-based; details: on gram-positive and gram-negative bacteria
Experimental: (§1) Complementary tests were carried out to determine the spectrum of activity of papillosin. The minimal bactericidal concentration (MBC) for each bacterial strain tested is determined as follows: The peptide is placed in a solution containing 0.01% acetic acid and 0.2% bovine serum albumin (BSA), then, serial dilutions of 2 2 are realized in the same 0.01% solution of acetic acid and 0.2% BSA. 10 μl of each dilution are incubated in sterile 96-well plates (Becton Dickinson, USA, ref: 18572) in the presence of 100 μl of a bacterial suspension brought to an optical density of 0.001 at 600 nm in the Mueller Hinton environment (MLHB, SIGMA, ref: M-9677).
(§2) The bacterial growth is monitored after 18 hours of incubation under agitation. The MBC is determined by spreading out the content of the first three wells in which no bacterial growth was observed. This spreading out was carried out on Petri dishes on which an agar was poured prepared from the Mueller Hinton environment. These dishes were then incubated 18 hours. The MBC corresponds to the lowest concentration of peptide for which no bacterial colony was observed on the incubated dishes.

[2] = tested on: M. luteus; assay type: cell-based; details: 18 h
Experimental: as §1, §2

For “GFWKKVGSAAWGGVKAAAKGAAVGGLNALAKHIQ [papillosin]”, the bacteriolytic activity [1] was “powerful bacteriolytic activity” and the MBC [2] was 0.125 to 0.25 µM.
